Experimental findings from article PMC11348715 (Chemical Science, 2024) are described below.

The Papp A→B is how fast a substance crosses the layer from the apical side.

The nature of the data set: Caco-2 permeability assay. The class given is in vitro ADME. The note with it: human. (In general: Caco-2 cells form a polarised layer with tight junctions and transporters.)

Turning to `C[C@H]1O[C@@H](O[C@H]2[C@@H](O)C[C@H](O[C@H]3[C@@H](O)C[C@H](O[C@H]4CC[C@@]5(C)[C@H](CC[C@@H]6[C@@H]5C[C@@H](O)[C@]5(C)[C@@H](C7=CC(=O)OC7)CC[C@]65O)C4)O[C@@H]3C)O[C@@H]2C)C[C@H](O)[C@@H]1O` [digoxin], the Papp A→B at 10 µM was 1.59 ×10⁻⁶ cm/s.
To `COCCc1ccc(OCC(O)CNC(C)C)cc1` (centres unmarked) [metoprolol] belongs 19.8 ×10⁻⁶ cm/s.
